Where two headings read alike, the source gives them in different places.
What was measured:
Test in all cases: Drug combination viability screen (ATPlite, 72 h);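 as to AUC: area under vehicle-normalized viability curve scaled 0 to 100 percent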;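 as to Curve bottom: fraction of vehicle control viability from four-parameter log-logistic fit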
Type in all cases: cell-based, human
Design in all cases: AUC: unit not given beside the values
BxPC-3 cells = details: for EC50: Homo sapiens, BXPC-3
Method: (§1) Cell viability was assessed by measuring ATP levels to indicate metabolic activity.
(§2) Afterward, small amounts were transferred to 384-well intermediate plates (Greiner Bio-One GmbH, Germany). […] For drug combination screening, 1000 to 5000 cells were seeded into 384-well plates (CulturPlate™, Perkin Elmer, MA, USA) using a Multidrop™ Combi Reagent Dispenser (Thermo Scientific, MA, USA) in 50 µl medium per well 24 h prior to drug treatment (seeding densities see Appendix Table S1). […] The final DMSO concentration in each well was 0.2%. […] Eight wells per plate without library drug served as negative controls, and sixteen wells per plate containing 5 µM Staurosporine served as positive controls. Control plates not containing any drug were used to correct for incubation effects, and data quality was assessed by calculation of Z-prime of positive and negative controls according to1 Z-prime=1−3SDpos+3SDneg/[…] where SD is the standard deviation. […] Dose–response curves from the experimental and hypothetical data were compared, and shifts in AUC were used to describe combination effects (AUC∆ = AUChypothetical − AUCexperimental). […] Only combinations with R^2 > 0.8 in both conditions were considered in the synergy analysis.

Colo-357 cells = details: for EC50: Homo sapiens, COLO357
Method: as §1, §2

HuP-T4 cells = details: for EC50: Homo sapiens
Method: as §1, §2

MiaPaCa-2 cells = details: for EC50: Homo sapiens
Method: as §1, §2

PaTu-8988-T cells = details: for EC50: Homo sapiens, PaTu 8988t
Method: as §1, §2

Suit2-07 cells = details: for EC50: Homo sapiens
Method: as §1, §2

## Nc1ccn([C@@H]2O[C@H](CO)[C@@H](O)C2(F)F)c(=O)n1 [GEM, Gemcitabine]
BxPC-3 cells; BxPC-3, R1, 41.15 nM
  Reponse: 1061560
BxPC-3 cells; BxPC-3, R1, 123.46 nM
  Reponse: 1199800
BxPC-3 cells; BxPC-3, R1, 370.37 nM
  Reponse: 1177280
BxPC-3 cells; BxPC-3, R1, 1111.11 nM
  Reponse: 1044400
BxPC-3 cells; BxPC-3, R1, 3333.33 nM
  Reponse: 1111640
BxPC-3 cells; BxPC-3, R1, 10000 nM
  Reponse: 1115240
BxPC-3 cells; BxPC-3, R2, 13.72 nM
  Reponse: 1392120
BxPC-3 cells; BxPC-3, R2, 41.15 nM
  Reponse: 1083440
BxPC-3 cells; BxPC-3, R2, 123.46 nM
  Reponse: 1301640
BxPC-3 cells; BxPC-3, R2, 370.37 nM
  Reponse: 1316120
BxPC-3 cells; BxPC-3, R2, 1111.11 nM
  Reponse: 1172200
BxPC-3 cells; BxPC-3, R2, 3333.33 nM
  Reponse: 1101720
BxPC-3 cells; BxPC-3, R2, 10000 nM
  Reponse: 982880
BxPC-3 cells; BxPC-3, GEM curve fit
  Curve bottom: 0.26
  Curve effect size: 0.75
  Curve slope: 1.82
  Curve top: 1.03
BxPC-3 cells; BxPC-3, GEM curve fit, in %
  AUC: 45.89
BxPC-3 cells; read-out: EC50
  EC50: 3.59 nM
BxPC-3 cells; read-out: pEC50 (converted)
  EC50: 3.55 nM
Colo-357 cells; Colo-357, R1, 13.72 nM
  ATP luminescence signal: 68560
Colo-357 cells; Colo-357, R1, 41.15 nM
  ATP luminescence signal: 61560
Colo-357 cells; Colo-357, R1, 123.46 nM
  ATP luminescence signal: 70640
Colo-357 cells; Colo-357, R1, 370.37 nM
  ATP luminescence signal: 48200
Colo-357 cells; Colo-357, R1, 1111.11 nM
  ATP luminescence signal: 53560
Colo-357 cells; Colo-357, R1, 3333.33 nM
  ATP luminescence signal: 50680
Colo-357 cells; Colo-357, R1, 10000 nM
  ATP luminescence signal: 66360
Colo-357 cells; Colo-357, R2, 13.72 nM
  ATP luminescence signal: 110000
Colo-357 cells; Colo-357, R2, 41.15 nM
  ATP luminescence signal: 110560
Colo-357 cells; Colo-357, R2, 123.46 nM
  ATP luminescence signal: 89840
Colo-357 cells; Colo-357, R2, 370.37 nM
  ATP luminescence signal: 97560
Colo-357 cells; Colo-357, R2, 1111.11 nM
  ATP luminescence signal: 70040
Colo-357 cells; Colo-357, R2, 3333.33 nM
  ATP luminescence signal: 80720
Colo-357 cells; Colo-357, R2, 10000 nM
  ATP luminescence signal: 83360
Colo-357 cells; Colo-357, GEM curve fit
  Curve bottom: 0.03
  Curve effect size: 0.97
  Curve slope: 3.24
  Curve top: 0.97
Colo-357 cells; Colo-357, GEM curve fit, in %
  AUC: 20.82
Colo-357 cells; read-out: EC50
  EC50: 1.32 nM
Colo-357 cells; read-out: pEC50 (converted)
  EC50: 1.32 nM
HuP-T4 cells; HuP-T4, read-out: EC50
  EC50: 3.08 nM
HuP-T4 cells; HuP-T4, read-out: pEC50 (converted)
  EC50: 3.09 nM
HuP-T4 cells; HuP-T4, R1, 13.72 nM
  Reponse: 312040
HuP-T4 cells; HuP-T4, R1, 370.37 nM
  Reponse: 231280
HuP-T4 cells; HuP-T4, R1, 1111.11 nM
  Reponse: 191240
HuP-T4 cells; HuP-T4, R1, 3333.33 nM
  Reponse: 187320
HuP-T4 cells; HuP-T4, R1, 10000 nM
  Reponse: 235360
HuP-T4 cells; HuP-T4, R2, 13.72 nM
  Reponse: 353160
HuP-T4 cells; HuP-T4, R2, 41.15 nM
  Reponse: 432720
HuP-T4 cells; HuP-T4, R2, 123.46 nM
  Reponse: 313280
HuP-T4 cells; HuP-T4, R2, 370.37 nM
  Reponse: 314320
HuP-T4 cells; HuP-T4, GEM curve fit
  Curve bottom: 0.12
  Curve effect size: 0.88
  Curve slope: 4.56
  Curve top: 0.99
HuP-T4 cells; HuP-T4, GEM curve fit, in %
  AUC: 35.37
MiaPaCa-2 cells; MIA PaCa-2, read-out: EC50,GEM
  EC50: ≥ 10 nM
MiaPaCa-2 cells; MIA PaCa-2, read-out: EC50
  EC50: 13.6 nM
MiaPaCa-2 cells; MIA PaCa-2, read-out: pEC50 (converted)
  EC50: 13.5 nM
MiaPaCa-2 cells; MiaPaCa-2, R1, 13.72 nM
  Reponse: 4319964
MiaPaCa-2 cells; MiaPaCa-2, R1, 41.15 nM
  Reponse: 2249377
MiaPaCa-2 cells; MiaPaCa-2, R1, 123.46 nM
  Reponse: 1464819
MiaPaCa-2 cells; MiaPaCa-2, R1, 370.37 nM
  Reponse: 1237785
MiaPaCa-2 cells; MiaPaCa-2, R1, 1111.11 nM
  Reponse: 1237333
MiaPaCa-2 cells; MiaPaCa-2, R1, 3333.33 nM
  Reponse: 1424454
MiaPaCa-2 cells; MiaPaCa-2, R1, 10000 nM
  Reponse: 1232056
MiaPaCa-2 cells; MiaPaCa-2, R2, 13.72 nM
  Reponse: 3184320
MiaPaCa-2 cells; MiaPaCa-2, R2, 41.15 nM
  Reponse: 1827720
MiaPaCa-2 cells; MiaPaCa-2, R2, 123.46 nM
  Reponse: 1167560
MiaPaCa-2 cells; MiaPaCa-2, R2, 370.37 nM
  Reponse: 1308800
MiaPaCa-2 cells; MiaPaCa-2, R2, 1111.11 nM
  Reponse: 1074400
MiaPaCa-2 cells; MiaPaCa-2, R2, 3333.33 nM
  Reponse: 1132280
MiaPaCa-2 cells; MiaPaCa-2, R2, 10000 nM
  Reponse: 1191360
MiaPaCa-2 cells; MiaPaCa-2, GEM curve fit
  Curve bottom: 0.18
  Curve effect size: 0.81
  Curve slope: 1.52
  Curve top: 0.96
MiaPaCa-2 cells; MiaPaCa-2, GEM curve fit, in %
  AUC: 51.47
PaTu-8988-T cells; read-out: EC50,GEM
  EC50: ≥ 10 nM
PaTu-8988-T cells; read-out: EC50
  EC50: 9.74 nM
PaTu-8988-T cells; read-out: pEC50 (converted)
  EC50: 9.77 nM
PaTu-8988-T cells; PaTu-8988-T, R1, 13.72 nM
  Reponse: 1159840
PaTu-8988-T cells; PaTu-8988-T, R1, 41.15 nM
  Reponse: 749200
PaTu-8988-T cells; PaTu-8988-T, R1, 123.46 nM
  Reponse: 706000
PaTu-8988-T cells; PaTu-8988-T, R1, 370.37 nM
  Reponse: 666320
PaTu-8988-T cells; PaTu-8988-T, R1, 1111.11 nM
  Reponse: 670960
PaTu-8988-T cells; PaTu-8988-T, R1, 3333.33 nM
  Reponse: 680760
PaTu-8988-T cells; PaTu-8988-T, R1, 10000 nM
  Reponse: 674680
PaTu-8988-T cells; PaTu-8988-T, replicate R2, dose 13.72 nM, raw signal
  Reponse: 1366360
PaTu-8988-T cells; PaTu-8988-T, replicate R2, dose 41.15 nM, raw signal
  Reponse: 917320
PaTu-8988-T cells; PaTu-8988-T, replicate R2, dose 123.46 nM, raw signal
  Reponse: 868680
PaTu-8988-T cells; PaTu-8988-T, replicate R2, dose 370.37 nM, raw signal
  Reponse: 808920
PaTu-8988-T cells; PaTu-8988-T, replicate R2, dose 3333.33 nM, raw signal
  Reponse: 899440
PaTu-8988-T cells; PaTu-8988-T, replicate R2, dose 10000 nM, raw signal
  Reponse: 809960
PaTu-8988-T cells; PaTu-8988-T, GEM curve fit
  Curve bottom: 0.31
  Curve effect size: 0.68
  Curve slope: 2.40
  Curve top: 0.96
PaTu-8988-T cells; PaTu-8988-T, GEM curve fit, in %
  AUC: 56.98
Suit2-07 cells; read-out: EC50
  EC50: 7.58 nM
Suit2-07 cells; read-out: pEC50 (converted)
  EC50: 7.59 nM
Suit2-07 cells; Suit2-07, R1, 13.72 nM
  Reponse: 2323360
Suit2-07 cells; Suit2-07, R1, 41.15 nM
  Reponse: 1614080
Suit2-07 cells; Suit2-07, R1, 123.46 nM
  Reponse: 1487640
Suit2-07 cells; Suit2-07, R1, 370.37 nM
  Reponse: 1265760
Suit2-07 cells; Suit2-07, R1, 1111.11 nM
  Reponse: 1242400
Suit2-07 cells; Suit2-07, R1, 3333.33 nM
  Reponse: 1298400
Suit2-07 cells; Suit2-07, R1, 10000 nM
  Reponse: 913840
Suit2-07 cells; Suit2-07, replicate R2, dose 13.72 nM, raw signal
  Reponse: 3086160
Suit2-07 cells; Suit2-07, replicate R2, dose 41.15 nM, raw signal
  Reponse: 2294600
Suit2-07 cells; Suit2-07, replicate R2, dose 123.46 nM, raw signal
  Reponse: 1746480
Suit2-07 cells; Suit2-07, replicate R2, dose 370.37 nM, raw signal
  Reponse: 1730640
Suit2-07 cells; Suit2-07, replicate R2, dose 1111.11 nM, raw signal
  Reponse: 1568520
Suit2-07 cells; Suit2-07, replicate R2, dose 3333.33 nM, raw signal
  Reponse: 1439120
Suit2-07 cells; Suit2-07, replicate R2, dose 10000 nM, raw signal
  Reponse: 1173920
Suit2-07 cells; Suit2-07, GEM curve fit
  Curve bottom: 0.19
  Curve effect size: 0.81
  Curve slope: 1.96
  Curve top: 1.00
Suit2-07 cells; Suit2-07, GEM curve fit, in %
  AUC: 46.93

Reference: PMC11876601 (Molecular Systems Biology, 2025)
